Measurements from US7691584B2, “Screening of compounds for OCT3 transporter activity” (XenoPort, Inc., priority 2005, dated 2010).

Columns and labels:
[1] = molecular target: T1, hOCT3 (Homo sapiens, UniProt O75751); assay: hOCT3 competition uptake assay (3H-MPP uptake into CHO-TREx-hOCT3 cells)
[2] = molecular target: T1, hOCT3; assay: hOCT3 direct uptake assay (LC-MS-MS, CHO-TREx-hOCT3 cells); conditions: specific uptake (induced minus non-induced)
[3] = molecular target: T2, PgP (Homo sapiens, UniProt P08183); assay: Transwell monolayer efflux assay, MDCK cells with TREx-PgP; type: cell-based; conditions: 2.5 nM 3H-vinblastine, in the presence of 250 μM verapamil
T2 construct: expressed in transfected cells; host or cells: MDCK cells transfected with tetracycline-inducible TREx-PgP
Procedure: Transwell monolayer efflux assays can be performed by transfecting MDCK cells with the tetracycline-inducible TREx-PgP expression vector. The cells optionally can be transfected with a nucleic acid encoding the transporter of interest. The transfected cells are seeded on polycarbonate filter membranes in transwell dishes and grown for 3-5 days, yielding a polarized monolayer with tight junctions between cells.

[4] = substrate: NCCc1c[nH]cn1; assay: cells, lysate or membranes; conditions: other: CHO-TREx-hOCT3 cells, specific uptake (induced minus non-induced)

T2 sequence (P08183 whole entry): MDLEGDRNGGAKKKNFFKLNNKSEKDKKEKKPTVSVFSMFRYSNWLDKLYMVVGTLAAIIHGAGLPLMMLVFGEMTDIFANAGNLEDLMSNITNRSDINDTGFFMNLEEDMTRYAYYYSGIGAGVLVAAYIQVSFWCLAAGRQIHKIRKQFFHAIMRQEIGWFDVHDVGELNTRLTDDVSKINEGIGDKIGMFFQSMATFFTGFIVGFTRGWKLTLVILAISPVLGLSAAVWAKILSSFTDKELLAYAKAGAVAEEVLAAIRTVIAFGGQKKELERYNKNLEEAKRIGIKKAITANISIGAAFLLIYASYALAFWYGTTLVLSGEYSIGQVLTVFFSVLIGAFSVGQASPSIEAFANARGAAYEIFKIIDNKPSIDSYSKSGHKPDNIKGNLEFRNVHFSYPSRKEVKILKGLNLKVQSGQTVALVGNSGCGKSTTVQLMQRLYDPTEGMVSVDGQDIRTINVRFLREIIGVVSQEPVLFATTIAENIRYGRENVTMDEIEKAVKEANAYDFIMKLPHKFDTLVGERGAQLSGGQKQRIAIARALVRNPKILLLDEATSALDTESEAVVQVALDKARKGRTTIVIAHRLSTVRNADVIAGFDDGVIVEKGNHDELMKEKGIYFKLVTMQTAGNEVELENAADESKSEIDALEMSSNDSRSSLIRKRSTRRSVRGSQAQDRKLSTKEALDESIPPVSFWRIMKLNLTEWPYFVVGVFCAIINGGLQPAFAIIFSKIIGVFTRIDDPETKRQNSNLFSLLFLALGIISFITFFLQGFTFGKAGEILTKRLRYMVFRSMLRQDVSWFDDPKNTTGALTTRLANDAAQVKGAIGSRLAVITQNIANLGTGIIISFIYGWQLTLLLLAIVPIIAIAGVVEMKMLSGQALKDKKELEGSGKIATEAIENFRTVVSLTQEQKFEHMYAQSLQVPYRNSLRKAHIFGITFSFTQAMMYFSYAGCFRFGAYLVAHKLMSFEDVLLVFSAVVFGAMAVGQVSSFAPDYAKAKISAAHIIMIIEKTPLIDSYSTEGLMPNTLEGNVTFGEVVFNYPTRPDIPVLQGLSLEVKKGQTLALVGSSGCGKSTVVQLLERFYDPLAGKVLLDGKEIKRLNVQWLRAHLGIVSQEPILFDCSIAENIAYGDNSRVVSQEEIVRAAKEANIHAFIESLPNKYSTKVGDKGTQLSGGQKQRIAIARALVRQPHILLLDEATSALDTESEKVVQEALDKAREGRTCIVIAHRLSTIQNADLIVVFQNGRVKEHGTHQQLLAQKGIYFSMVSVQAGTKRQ

NCCc1c[nH]cn1 [Histamine, histamine]
IC50 [1]: 150 µM | uptake of labeled MPP with increasing concentration of unlabeled competitor ([1]; cells induced to express OCT3, FIG. 2): decreased | Direct Uptake Vmax [2]: 4.6 pmol/min/well

CC[C@]1(O)C[C@@H]2CN(CCc3c([nH]c4ccccc34)[C@@](C(=O)OC)(c3cc4c(cc3OC)N(C)[C@H]3[C@@](O)(C(=O)OC)[C@H](OC(C)=O)[C@]5(CC)C=CCN6CC[C@]43[C@@H]65)C2)C1 [^3H-vinblastine, vinblastine]
apical to basolateral transport [3]: strongly increased | basolateral to apical transport [3]: strongly decreased

B1: hOCT3 (Homo sapiens) (protein)
chain: MPSFDEALQRVGEFGRFQRRVFLLLCLTGVTFAFLFVGVVFLGTQPDHYWCRGPSAAALAERCGWSPEEEWNRTAPASRGPEPPERRGRCQRYLLEAANDSASATSALSCADPLAAFPNRSAPLVPCRGGWRYAQAHSTIVSEFDLVCVNAWMLDLTQAILNLGFLTGAFTLGYAADRYGRIVIYLLSCLGVGVTGVVVAFAPNFPVFVIFRFLQGVFGKGTWMTCYVIVTEIVGSKQRRIVGIVIQMFFTLGIIILPGIAYFIPNWQGIQLAITLPSFLFLLYYWVVPESPRWLITRKKGDKALQILRRIAKCNGKYLSSNYSEITVTDEEVSNPSFLDLVRTPQMRKCTLILMFAWFTSAVVYQGLVMRLGIIGGNLYIDFFISGVVELPGALLILLTIERLGRRLPFAASNIVAGVACLVTAFLPEGIAWLRTTVATLGRLGITMAFEIVYLVNSELYPTTLRNFGVSLCSGLCDFGGIIAPFLLFRLAAVWLELPLIIFGILASICGGLVMLLPETKGIALPETVDDVEKLGSPHSCKCGRNKKTPVSRSHL
Km [4]: 110 µM
